According to patent US5703087A, “Phenyl indole compounds” (H. Lundbeck A/S, priority 1993, dated 1997):
Counter-ions that a name gives are not always drawn. Like-named read-outs stand apart in the source and are kept apart here.

Assays:
5-HT2 = assay: Quipazine inhibition (quipazine induced head twitches in rats); type: in vivo; settings: Rattus norvegicus
Source text: Quipazine is a 5-HT2 agonist, which induces head twitches in rats.

[1] = Catalepsy in rats (vertical wire mesh); settings: rat, in vivo, 1-6 hours, sc
Method: Evaluation of catalepsy is made according to Arnt (Eur. J. Pharmacol. 90, 47-55 (1983)). Test compound is given s.c. in different doses. The rat (170-240 g) is placed on a vertical wire mesh (mesh diameter 12 mm). The rat is considered cataleptogenic if it remains immobile for more than 15 sec. The maximum number of rats showing catalepsy within the first 6 hours is recorded for each dose group. The results are recorded in fractions and an ED50 value is calculated by means of log-probit analysis.

5-HT2 receptors = biological target: T1, 5-HT2 receptors (Rattus norvegicus, UniProt P14842); assay: Inhibition of 3H-Ketanserin binding to 5-HT2 receptors in membranes from rat cortex in vitro; settings: 0,5 nM 3H-ketanserin
T1 construct: 5-HT2 receptors in membranes from rat; from tissue; host or cells: rat cortex membranes
T1 sequence (P14842 whole entry): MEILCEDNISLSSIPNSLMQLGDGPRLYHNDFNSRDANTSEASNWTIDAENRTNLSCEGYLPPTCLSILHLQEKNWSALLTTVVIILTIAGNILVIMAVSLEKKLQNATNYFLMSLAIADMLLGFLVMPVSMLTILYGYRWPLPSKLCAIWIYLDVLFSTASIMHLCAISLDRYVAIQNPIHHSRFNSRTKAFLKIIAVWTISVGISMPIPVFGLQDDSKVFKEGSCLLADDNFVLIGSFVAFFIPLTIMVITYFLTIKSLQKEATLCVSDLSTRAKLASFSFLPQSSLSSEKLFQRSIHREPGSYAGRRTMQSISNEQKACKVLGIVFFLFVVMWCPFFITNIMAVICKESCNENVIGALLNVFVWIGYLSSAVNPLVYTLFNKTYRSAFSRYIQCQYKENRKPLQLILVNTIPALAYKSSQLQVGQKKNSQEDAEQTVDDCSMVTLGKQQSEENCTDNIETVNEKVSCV
Method: Inhibition of ^3 H-Ketanserin Binding To 5-HT2 Receptors in […] Cortex in vitro
By this method the inhibition by drugs of the binding of ^3 H-Ketanserin (0,5 nM) to 5-HT2 receptors in membranes from rat is determined in vitro. The method is described in Hyttel, Pharmacology & Toxicology 61, 126-129, 1987.

dopamine D2 receptors = biological target: T2, dopamine D2 receptors (Rattus norvegicus, UniProt P61169); assay: Inhibition of 3H-Spiperone binding to dopamine D2 receptors in rat corpus striatum in vitro; settings: 0.5 nM 3H-spiperone, rat corpus striatum membranes, read-out: Dopamine D2 binding [^3 H]-spiroperidol
T2 construct: dopamine D2 receptors in membranes from rat corpus striatum; from tissue; host or cells: rat corpus striatum membranes
T2 sequence (P61169 whole entry): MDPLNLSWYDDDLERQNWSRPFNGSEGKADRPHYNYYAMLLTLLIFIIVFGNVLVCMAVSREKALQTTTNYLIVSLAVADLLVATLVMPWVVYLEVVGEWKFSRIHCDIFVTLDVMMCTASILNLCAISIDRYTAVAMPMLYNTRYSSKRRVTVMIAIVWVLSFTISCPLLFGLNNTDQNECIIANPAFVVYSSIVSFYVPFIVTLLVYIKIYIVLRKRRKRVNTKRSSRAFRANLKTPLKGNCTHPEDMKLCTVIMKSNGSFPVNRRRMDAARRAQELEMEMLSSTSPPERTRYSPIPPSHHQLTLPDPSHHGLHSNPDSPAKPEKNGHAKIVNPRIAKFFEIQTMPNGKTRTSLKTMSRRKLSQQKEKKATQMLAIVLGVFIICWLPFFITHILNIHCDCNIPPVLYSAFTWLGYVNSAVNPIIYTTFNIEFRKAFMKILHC
Method: Inhibition of ^3 H-Spiperone Binding to Dopamine D2 Receptors in Rat Corpus Striatum in vitro
By this method the inhibition by drugs of the binding of ^3 H-spiperone (0.5 nM) to dopamine D2 receptors in membranes from rat corpus striatum is determined in vitro.

[2] = in vivo; cited from earlier work
[3] = po, 24 h, read-out: Quipazine inhibition 24 hours (po) ED50
[4] = sc, 2 h, read-out: Quipazine inhibition 2 hours (sc) ED50
[5] = rats, 2 hours, sc, read-out: Quipazine inhibition 2 hours (sc) ED50
[6] = rats, 24 hours, po, read-out: Quipazine inhibition 24 hours (po) ED50

Structure (SMILES)	ED50 (5-HT2; [3]) [µmol/kg]	ED50 (5-HT2; [4]) [µmol/kg]	ED50 at 6 h [1] [µmol/kg]	IC50 (5-HT2 receptors) [nM]	IC50 (dopamine D2 receptors) [nM]	ED50 (5-HT2; [5]) [µmol/kg]	ED50 (5-HT2; [6]) [µmol/kg]	anxiolytic activity [2]
O=C1NCC(O)N1CCN1CCC(c2cn(-c3ccc(F)cc3)c3ccc(Cl)cc23)CC1 (centres unmarked) [Compound 1, 1-[2-[4-[5-chloro-1-(4-fluorophenyl)-1H-indol-3-yl]piperidin-1-yl]ethyl]-5-hydroxyimidazolidin-2-one]	0.085	0.099	39	1.4	5.5			
COC1CNC(=O)N1CCN1CCC(c2cn(-c3ccc(F)cc3)c3ccc(Cl)cc23)CC1 (centres unmarked) [Compound 3, 1-[2-[4-[5-chloro-1-(4-fluorophenyl)-1H-indol-3-yl]piperidin-1-yl]ethyl]-5-methoxyimidazolidin-2-one, fumarate]			17	1.5	13			
[2H]C1([2H])NC(=O)N(CCN2CCC(c3cn(-c4ccc(F)cc4)c4ccc(Cl)cc34)CC2)C1([2H])[2H] [Compound 4, 1-[2-[4-[5-Chloro-1-(4-fluorophenyl)-1H-indol-3-yl]piperidin-1-yl]ethyl]-4,4,5,5-tetradeuteroimidazolidin-2-one]			> 45			0.07	< 0.0056	
[2H]C1([2H])CN(CCN2CCC(c3cn(-c4ccc(F)cc4)c4ccc(Cl)cc34)CC2)C(=O)N1 [Compound 5, 1-[2-[4-[5-Chloro-1-(4-fluorophenyl)-1H-indol-3-yl]piperidin-1-yl]ethyl]-4,4-dideuteroimidazolidin-2-one]			> 45			0.055	0.0097	
[2H]C1([2H])CNC(=O)N1CCN1CCC(c2cn(-c3ccc(F)cc3)c3ccc(Cl)cc23)CC1 [Compound 6, 1-[2-[4-[5-Chloro-1-(4-fluorophenyl)-1H-indol-3-yl]piperidin-1-yl]ethyl]-5,5-dideuteroimidazolidin-2-one]			30			0.02	0.012	
O=C1NC(O)C(=O)N1CCN1CCC(c2cn(-c3ccc(F)cc3)c3ccc(Cl)cc23)CC1 (centres unmarked) [Compound 7a, 1-[2-[4-[5-Chloro-1-(4-fluorophenyl)-1H-indol-3-yl]piperidin-1-yl]ethyl]-4-hydroxyimidazolidin-2,5-dione]			> 42	6.6	18			
O=C1NC(=O)N(CCN2CCC(c3cn(-c4ccc(F)cc4)c4ccc(Cl)cc34)CC2)C1O (centres unmarked) [Compound 7b, 1-[2-[4-[5-chloro-1-(4-fluorophenyl)-1H-indol-3-yl]piperidin-1-yl]ethyl]-5-hydroxyimidazolidin-2,4-dione]			> 21	9.8	23			
CC1(C)CN(CCN2CCC(c3cn(-c4ccc(F)cc4)c4ccc(Cl)cc34)CC2)C(=O)N1 [Compound 8, 1-[2-[4-[5-Chloro-1-(4-fluorophenyl)-1H-indol-3-yl]piperidin-1-yl]ethyl]-4,4-dimethylimidazolidin-2-one]	0.013	0.035	> 43	2	18			
CC1(C)CNC(=O)N1CCN1CCC(c2cn(-c3ccc(F)cc3)c3ccc(Cl)cc23)CC1 [Compound 9, 1-[2-[4-[5-Chloro-1-(4-fluorophenyl)-1H-indol-3-yl]piperidin-1-yl]ethyl]-5,5-dimethylimidazolidin-2-one]	0.078	0.13	> 43	1.7	14			
CC1(C)C(=O)NC(=O)N1CCN1CCC(c2cn(-c3ccc(F)cc3)c3ccc(Cl)cc23)CC1 [Compound 10, 1-[2-[4-[5-Chloro-1-(4-fluorophenyl)-1H-indol-3-yl]piperidin-1-yl]ethyl]-5,5-dimethylimidazolidin-2,4-dione]		0.33	> 30	12	20			
O=C1NC(O)C(O)N1CCN1CCC(c2cn(-c3ccc(F)cc3)c3ccc(Cl)cc23)CC1 (centres unmarked) [Compound 11, 1-[2-[4-[5-chloro-1-(4-fluorophenyl)-1H-indol-3-yl]piperidin-1-yl]ethyl]-4,5-dihydroxyimidazolidin-2-one]				2.5	18			
O=C1NC2(CCCC2)CN1CCN1CCC(c2cn(-c3ccc(F)cc3)c3ccc(Cl)cc23)CC1 [Compound 12, 3-[2-[4-[5-Chloro-1-(4-fluorophenyl)-1H-indol-3-yl]piperidin-1-yl]ethyl]-1,3-diazaspiro[4.4]nonan-2-one]	0.037	0.076	> 40	4.7	19			
O=C1NCC2(CCCC2)N1CCN1CCC(c2cn(-c3ccc(F)cc3)c3ccc(Cl)cc23)CC1 [Compound 13, 1-[2-[4-[5-Chloro-1-(4-fluorophenyl)-1H-indol-3-yl]piperidin-1-yl]ethyl]-1,3-diazaspiro[4.4]nonan-2-one]	0.45	0.088	> 40	4.5	30			
O=C1NCCN1CCN1CCC(c2cn(-c3ccc(F)cc3)c3ccc(Cl)cc23)CC1 [sertindole, 1-[2-[4-[5-chloro-1-(4-fluorophenyl)-1H-indol-3-yl]piperidin-1-yl]ethyl]-2-imidazolidinone, reference compound]			> 91			0.035	0.039	found to show anxiolytic activity
